Source: US20050043341A1, “3-'Hydroxy-(-4-trifluoromethylphenyl)-methyl-7-spirocyclobutyl-5,6,7 8-tetrahydroquinolin-5-ol derivatives and the use of the same as cholesterol ester transfer protein (cetp) inhibitors” (priority 2001, published 2005)
Like-named read-outs stand apart in the source and are kept apart here.

Key:
CETP = target: T1, CETP (Homo sapiens, UniProt P11597); assay: CETP-SPA test; type: biochemical; details: 3H-cholesterol ester transfer from HDL to biotin-LDL, 37° C., 18 h
T1 construct: CETP is obtained in partially purified form from human plasma; from tissue; host or cells: human plasma
T1 sequence (P11597 18-493): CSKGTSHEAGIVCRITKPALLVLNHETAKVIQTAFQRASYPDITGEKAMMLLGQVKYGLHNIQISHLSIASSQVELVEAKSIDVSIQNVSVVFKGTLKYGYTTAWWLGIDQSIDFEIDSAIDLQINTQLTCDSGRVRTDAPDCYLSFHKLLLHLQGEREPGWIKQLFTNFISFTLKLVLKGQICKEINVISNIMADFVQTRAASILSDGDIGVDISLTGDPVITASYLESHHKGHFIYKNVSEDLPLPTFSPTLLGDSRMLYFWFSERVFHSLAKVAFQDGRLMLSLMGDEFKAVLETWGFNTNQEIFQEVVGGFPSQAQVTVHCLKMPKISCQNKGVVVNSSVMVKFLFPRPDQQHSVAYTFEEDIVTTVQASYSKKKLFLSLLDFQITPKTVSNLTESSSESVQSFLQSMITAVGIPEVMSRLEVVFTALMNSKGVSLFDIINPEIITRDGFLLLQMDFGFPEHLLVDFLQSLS
Protocol: CETP is obtained in partially purified form from human plasma by differential centrifugation and column chromatography and used for the test. To this end, human plasma is adjusted to a density of 1.21 g per ml using NaBr and centrifuged at 4° C. at 50000 rpm for 18 h. The bottom fraction (d>1.21 g/ml) is applied to a Sephadex® Phenyl-Sepharose 4B (Pharmacia) column, washed with 0.15 M NaCl/0.001 M tris HCl pH 7.4 and then eluted with dist. water. Die CETP-active fractions are pooled, dialysed against 50 mM Na acetate pH 4.5 and applied to a CM-Sepharose® (Pharmacia) column. The mixture is then eluted using a linear gradient (0-1 M NaCl). The pooled CETP fractions are dialysed against 10 mM TrisHCl pH 7.4 and then further purified by chromatography on a Mono Q® column (Pharmacia).
50 ml of fresh human EDTA plasma are adjusted to a density of 1.12 using NaBr and centrifuged at 4° C. in a Ty 65 rotor at 50000 rpm for 18 h. The upper phase is used for the obtainment of cold LDL. The lower phase is dialysed against 3×41 of PDB buffer (10 mM tris/HCl pH 7.4, […], 1 mM EDTA, 0.02% NaN3). Per 10 ml of retentate volume, 20 μl of 3H-cholesterol (Dupont NET-725; 1 μC/μl dissolved in ethanol!) is then added and the mixture is incubated at 37° C. under N2 for 72 h.
The batch is then adjusted to the density 1.21 using NaBr and centrifuged at 20° C. in a Ty 65 rotor at 50000 rpm for 18 h. The upper phase is recovered and the lipoprotein fractions are purified by gradient centrifugation. To this end, the isolated, labelled lipoprotein fraction is adjusted to a density of 1.26 using NaBr. 4 ml each of this solution are covered in centrifuged tubes (SW 40 rotor) with a layer of 4 ml of a solution of density 1.21 and 4.5 ml of a solution of 1.063 (density solutions of PDB buffer and NaBr) and then centrifuged for 24 h at 38000 rpm and 20° C. in the SW 40 rotor. The intermediate layer lying between the density 1.063 and 1.21, containing the labelled HDL, is dialysed against 3×100 volumes of PDB buffer at 4° C.
The retentate contains radiolabelled ^3H-CE-HDL, which, adjusted to about 5×10^6 cmp per ml, is used for the test.
For testing of the CETP activity, the transfer of ^3H-cholesterol ester from human HD lipoproteins to biotinylated LD lipoproteins is measured.
The reaction is ended by addition of streptavidin-SPA®beads (Amersham) and the transferred radioactivity is determined directly in a liquid scintillation counter.
In the test batch, 10 μl of HDL-^3H-cholesterol ester (˜50000 cpm) are incubated at 37° C. for 18 h with 10 μl of biotin-LDL (Amersham) in 50 mM Hepes/0.15 M NaCl/0.1% bovine serum albumin/0.05% NaN3 pH 7.4 containing 10 μl of CETP (1 mg/ml) and 3 μl of solution of the substance to be tested (dissolved in 10% DMSO/1% RSA). 200 μl of the SPA-streptavidin bead solution (TRKQ 7005) are then added, incubated further with shaking for 1 h and then measured in a scintillation counter.
Corresponding incubations with 10 μl of buffer, 10 μl of CETP at 4° C. and 10 μl of CETP at 37° C. serve as controls.
The activity transferred in the control batches with CETP at 37° C. is rated as 100% transfer. The substance concentration at which this transfer is reduced to half is specified as the IC50 value.

[1] = target: T2, CETP activity in the serum (Homo sapiens, UniProt P11597); assay: Ex vivo activities on transgenic hCETP mice (serum CETP activity after oral administration); details: mouse, cholesteryl ester transport in serum
T2 construct: determination of its basal CETP activity in the serum; from tissue; host or cells: serum of transgenic hCETP mice
T2 sequence (P11597 18-493): T1 sequence (P11597 18-493)
Protocol: To test for CETP-inhibitory activity, the substances are administered orally using a stomach tube to transgenic hCETP mice of our own breeding (Dinchuk et al. BBA (1995) 1295-301). To this end, male mice are randomly assigned to groups having an equal number of animals, as a rule n=3, one day before the start of the experiment. Before administration of the substance, blood is taken from each mouse by puncture of the retroorbital venous plexus for the determination of its basal CETP activity in the serum (T1). The test substance is then administered to the animals using the stomach tube. At specific times after administration of the test substance, blood is taken from the animals by puncture a second time (T2), as a rule 1, or 3 and 6 h after substance administration, but if appropriate this can also be carried out at another time.
In order to be able to assess the inhibitory activity of a substance, for each time, i.e. 1 or 3 or 6 h, a corresponding control group is employed whose animals only receive the formulating agent without substance. In the control animals, the second blood sampling per animal is carried out as in the substance-treated animals in order to be able to determine the change in the CETP activity without inhibitor over the corresponding experimental time interval (1, 3 or 6 h).
After termination of the clotting, the blood samples are centrifuged and the serum is removed by pipette.
For the determination of the CETP activity, the cholesteryl ester transport over 4 h is determined. To this end, as a rule 2 μl of serum are employed in the test batch and the test is carried out as described under “CETP fluorescence test”.
The differences in the cholesteryl ester transport (pM CE*/h (T2)−pM CE*/h (T1)) are calculated for each animal and averaged in the groups. A substance which at one of the times reduces the cholesteryl ester transport by >30% is regarded as active.

[2] = 1 h after administration, read-out: % inhibition at 30 mg/kg, 1 h
[3] = 3 h after administration, read-out: % inhibition at 30 mg/kg, 3 h
[4] = 6 h after administration, read-out: % inhibition at 30 mg/kg, 6 h

IC50 (CETP) [nM]	inhibition at 30 mg/kg [1, 2] [%]	inhibition at 30 mg/kg [1, 3] [%]	inhibition at 30 mg/kg [1, 4] [%]	SMILES
15	72	64	60	CC(C)c1nc2c(c(-c3ccc(F)cc3)c1[C@@H](O)c1ccc(C(F)(F)F)cc1)[C@@H](O)CC1(CCC1)C2 [Example 51, (5S)-2-Isopropyl-4-(4-fluorophenyl)-3-[(S)-hydroxy-(4-trifluoromethylphenyl)-methyl]-7-spirocyclobutyl-5,6,7,8-tetrahydroquinolin-5-ol]
30	69	51	44	CC(C)c1nc2c(c(-c3ccccc3)c1[C@@H](O)c1ccc(C(F)(F)F)cc1)[C@@H](O)CC1(CCC1)C2 [Example 53, (5S)-2-Isopropyl-4-phenyl-3-[(S)-hydroxy-(4-trifluoromethylphenyl)-methyl]-7-spirocyclobutyl-5,6,7,8-tetrahydroquinolin-5-ol]
40	71	49	35	CC(C)c1nc2c(c(-c3cccs3)c1[C@@H](O)c1ccc(C(F)(F)F)cc1)[C@@H](O)CC1(CCC1)C2 [Example 61, (5S)-2-Isopropyl-4-(2-thienyl)-3-[(S)-hydroxy-(4-trifluoromethylphenyl)-methyl]-7-spirocyclobutyl-5,6,7,8-tetrahydroquinolin-5-ol]
